Data: patent US8105577B1, “Prebiotic composition for increasing probiotic growth rate and activity” (Master Supplements, Inc., priority 2010, dated 2012)

What was measured:
Type in all cases: cell-based
[1] = system: Lactobacillus acidophilus NCFM (LA-1); assay: Growth (turbidity) and lactic acid producing activity in MRS broth, L. acidophilus NCFM; details: for pH: 0.1% in MRS (polysorbate 80 1.0 g/liter)
Protocol: (§1) At specified time intervals, a 30 ml sample from each flask was aseptically transferred into a HACH […] Turbidimeter sample cell. The turbidity of each sample was read and the results were reported in NTU's. The same 30 ml sample used for the turbidity reading was transferred into a 250 ml glass beaker, and the pH was recorded. The sample was titrated using 0.1N NaOH to an endpoint of pH 6.8, and the quantity of NaOH used was recorded. The % Lactic Acid was calculated using the following formula: % Lactic Acid=((mls of 0.1N NaOH)×(0.1N)×(90 gm/mole)×(1 L/1000 ml))×100 mls of sample % Lactic Acid=(mls of 0.1N NaOH)×(0.9) (Results reported at 12 hours and 23 hours like: 12/23 in Table I below)

[2] = system: Lactobacillus paracasei Lpc-37 (F-19); assay: Growth (turbidity) and lactic acid producing activity in MRS broth, L. paracasei Lpc-37
Protocol: as §1, with “Each flask was tempered to 37° C. and aseptically inoculated with 0.14 gm of the individual probiotic strains (in Examples 5 to 10 below) to be tested. At” for “At”, “III” for “I”

[3] = system: Lactobacillus rhamnosus Lr-32 (LR-44); assay: Growth (turbidity) and lactic acid producing activity in MRS broth, L. rhamnosus Lr-32; details: for pH: 0.1% in MRS (polysorbate 80 1.0 g/liter)
Protocol: as §1, with “Each flask was tempered to 37° C. and aseptically inoculated with 0.14 gm of the individual probiotic strains (in Examples 5 to 10 below) to be tested. At” for “At”, “IV” for “I”

[4] = system: Lactobacillus salivarius Ls-33 (LS-30); assay: Growth (turbidity) and lactic acid producing activity in MRS broth, L. salivarius Ls-33; details: for pH: 0.1% in MRS (polysorbate 80 1.0 g/liter)
Protocol: as §1, with “Each flask was tempered to 37° C. and aseptically inoculated with 0.14 gm of the individual probiotic strains (in Examples 5 to 10 below) to be tested. At” for “At”, “V” for “I”

[5] = system: THERALAC® Lot #32310A probiotic strains; assay: Growth of the commercial probiotic […] in MRS broth (turbidity, lactic acid, pH); details: for pH: 0.1% in MRS (polysorbate 80 1.0 g/liter)
Protocol: MRS broth was prepared with (for controls) and without (for tests) polysorbate 80 and filled into 1 liter screw cap flasks at 500 ml each and autoclaved at 121° C. for 30 minutes. Various lecithin and/or oleic acid additives, or nothing (negative control), was added to the tests flasks prior to autoclaving. The flasks were then tempered to 37° C. in a water bath and inoculated at 0.1% with […]® Lot #32310A, a commercial probiotic product (Master Supplements, Inc., Victoria, Minn.). Capsules of […]® were opened and the contents mixed aseptically to serve as the inoculum source. At an inoculation rate of 0.1%, approximately 80 million CFU was added per ml of MRS media. […]® contains (formulation strength) the following probiotic strains at the approximate CFU values listed per gram: Turbidity, pH and titrations (made with 0.1 N NaOH and reported as % lactic acid) were made at various times up to 23 hours. The results are presented below in Table VI for the 12 and 23-hour analyses.

[6] = system: Bifidobacterium lactis Bl-04 (BL-34); assay: Growth (turbidity) and lactic acid producing activity in MRS broth, B. lactis Bl-04; details: 0.1% in MRS (polysorbate 80 1.0 g/liter)
Protocol: as §1, with “Each flask was tempered to 37° C. and aseptically inoculated with 0.14 gm of the individual probiotic strains (in Examples 5 to 10 below) to be tested. At” for “At”, “II” for “I”

[7] = 0.1% in MRS (polysorbate 80 1.0 g/liter), 12 hours

Row | Molecule | effectiveness as polysorbate 80 replacement (growth and lactic acid production), in words ([1]; 0.1% inclusion rate in MRS) | effectiveness as polysorbate 80 replacement, in words ([2]; 0.1% inclusion rate in MRS) | effectiveness as polysorbate 80 replacement, in words ([3]; 0.1% inclusion rate in MRS) | effectiveness as polysorbate 80 replacement, in words ([4]; 0.1% inclusion rate in MRS) | effectiveness as polysorbate 80 replacement, in words ([5]; 0.1% inclusion rate in MRS) | pH ([1]; 12 hours) | pH ([1]; 23 hours) | Lactic Acid % ([6]; 12 hours) [%] | pH ([6]; 12 hours) | Lactic Acid % ([6]; 23 hours) [%] | pH ([6]; 23 hours) | Lactic Acid % [2, 7] [%] | pH [2, 7] | pH ([2]; 0.1% in MRS (polysorbate 80 1.0 g/liter), 23 hours) | pH ([3]; 12 hours) | pH ([3]; 23 hours) | pH ([4]; 12 hours) | pH ([4]; 23 hours) | pH ([5]; 12 hours) | pH ([5]; 23 hours)
1 | CCCCCCCC/C=C\CCCCCCCC(=O)O [Oleic Acid, oleic acid] | somewhat effective as a polysorbate 80 replacement but not as effective as either sunflower or soy lecithin | shows an improvement over no polysorbate 80 but is not as effective a replacement for polysorbate 80 as sunflower lecithin | shows an improvement over no polysorbate 80 on the 23-hour test but shows a significant lag phase at 12 hours; it is not as good a replacement for polysorbate 80 as sunflower lecithin | not as good a replacement as a lag phase is apparent at 12 hours | acceptable replacement value for polysorbate 80 but is not as effective as either of the lecithins | – | – | – | – | – | – | – | – | – | – | – | – | – | – | –
2 | polysorbate 80 | – | – | – | – | – | 4.2 | 4.1 | 0.57 | 4.8 | 0.84 | 4.5 | 0.99 | 4.2 | 3.9 | 4.0 | 3.7 | 3.8 | 3.7 | 3.9 | 3.7
